Laboratory results taken from patent publication US20180221306A1, “PHARMACEUTICAL COMPOSITIONS OF 5-HYDROXY-2-METHYLNAPHTHALENE-1,4-DIONE” (PellFiCure Pharmaceuticals, Inc., priority 2016, published 2018).

Tested on: PTEN-P2/H2B-GFP mouse prostate cancer cells
Test: IVM pseudo-orthotopic prostate chamber model, tumor size
Conditions: for Combination efficacy: the drug in combination with Compound I administered orally
Experimental: Male Nude mice (25-35 g body weight) are anesthetized (7.3 mg ketamine hydrochloride and 2.3 mg xylazine/100 g body weight, i.p.) and placed on a heating pad. Two symmetrical titanium frames are implanted into a dorsal skinfold, so as to sandwich the extended double layer of skin. A 15 mm full thickness circular layer is excised. The underlying muscle (M. cutaneous max.) and subcutaneous tissues are covered with a glass coverslip incorporated in one of the frames. After a recovery period of 2-3 days, prostate tissue and cancer cell spheroids are carefully placed in the chamber. Small circular Band Aids are applied on the backside of the chamber after surgery to prevent scratching. Before surgery, Buprenorphine (0.1 mg/kg) is given IP. After surgery Meloxicam is given in the drinking water for 4 days Meloxicam (5.0 mg/ml), is added at 35 μl per 100 ml of water to be medicated.
Mice are anesthetized with 7.3 mg ketamine hydrochloride and 2.3 mg xylazine/100 g body weight, i.p. A lateral incision across the scrotum is made and the testes are individually ligated and excised. The wound is cauterized. The incision is then sutured and sealed with Nexaband® acrylic.
Preparation of tumor spheroids: Liquid overlay plates were generated using 1% molecular biology grade agarose melted in cell culture medium and plated in round bottom 96 well plates at 50 ul/well. Tumor cells grown as pre-confluent monolayers were trypsinized and diluted to a final volume of 1,000,000 cells/ml. Viability was determined by Trypan blue. Cells were placed onto the cooled agarose (70 μl/well) and allowed to compact into spheroids for 24 hours. The spheroids were picked with a pipette and transferred into serum-free media for implantation in the chambers.
IntraVital Microscopy (IVM) can be used to visualize tumors in animals and analyze various aspects of cancer physiology such as tumor vascularization, cell migration and metastasis. An advantage of IVM includes the real-time analysis of dynamic processes with single-cell resolution. IntraVital microscopy offers the possibility to follow tumor growth in a non-invasive, non-destructive manner. The application of IVM can be limited to animal models that bear visually accessible tumors. Therefore, the dorsal skinfold chamber model described above can be compatible with IVM. Using IVM can permit a number of parameters to be measured in living animals and as a function of time, including tumor growth, angiogenesis, infiltration by immune cells, tumor cell migration, mitosis (cell-division) and apoptosis (programmed cell death), all in the context of the host and in real time.
Unless otherwise indicated, Compound I was administered by oral gavage in a sesame oil (Carrier A) formulation. Compound I was dissolved in DMSO then in oil at a concentration of 0.25 mg/ml (weight/volume) with a final DMSO concentration of 0.5% (vol/vol), and administered to mice at 1 mg/kg. In some experiments, Compound I dissolved in a mixture of poly-ethylene glycol/DMSO 30% (w/v) was administered via intra-peritoneal injection.
The efficacy of the formulation of Compound I in Carrier A for oral administration was compared to the previous formulation of Compound I in poly-ethylene glycol (PEG) for intra-peritoneal injection (i.p.). These experiments were performed using Intra Vital Microscopy (IVM) in a pseudo-orthotopic prostate chamber model in which minced prostate tissue is grafted in chambers surgically placed in the dorsal skinfold of mice, and allowed to vascularize. Small tumor cells spheroids were then placed on the prostate tissue, creating a biologically relevant prostatic environment. The tumor cells that express fluorescent H2B-GFP and can be detected in situ and in real-time through the microscopy window of the dorsal chamber.
Epithelial cell lines derived from the prostate tumor of a PTEN-null mouse were used. Mouse prostate cancer cells PTEN-P2 are heterozygous for PTEN deletion and do express protein PTEN.

Row | SMILES | Combination efficacy | other results
1 | CNC(=O)c1ccc(N2C(=S)N(c3ccc(C#N)c(C(F)(F)F)c3)C(=O)C2(C)C)cc1F [enzalutamide, (4-(3-(4-cyano-3-(trifluoromethyl)phenyl)-5,5-dimethyl-4-oxo-2-thioxoimidazolidin-1-yl)-2-fluoro-N-methylbenzamide), reference compound] | No | Effect on tumor size, drug alone (enzalutamide alone): did not result in a reduction in tumor size
2 | C[C@]12CC[C@H](O)CC1=CC[C@@H]1[C@@H]2CC[C@]2(C)C(c3cccnc3)=CC[C@@H]12 [Abiratcrone, (3β)-17-(pyridin-3-yl)androsta-5,16-dien-3-ol, reference compound] | Yes | –
3 | CC(O)(CS(=O)(=O)c1ccc(F)cc1)C(=O)Nc1ccc(C#N)c(C(F)(F)F)c1 (stereo not drawn) [bicalutamide, N-[4-cyano-3-(trifluoromethyl)phenyl]-3-[(4-fluorophenyl)sulfonyl]-2-hydroxy-2-methylpropanamide, reference compound] | No | Effect on tumor size, drug alone (bicalutamide alone, inhibited further tumor growth): did not result in a reduction of initial tumor size
4 | CNC(=O)c1ccc2cc(C3(O)CCn4cncc43)ccc2c1 (stereo not drawn) [orteronel, 6-(7-Hydroxy-6,7-dihydro-5H-pyrrolo[1,2-c]imidazol-7-yl)-N-methyl-naphthalene-2-carboxamide, reference compound] | Yes | Effect on tumor size, drug alone (orteronel alone): did not result in a reduction in tumor size
5 | CCNC(=O)[C@@H]1CCCN1C(=O)[C@H](CCCNC(=N)N)NC(=O)[C@H](CC(C)C)NC(=O)[C@@H](CC(C)C)NC(=O)[C@H](Cc1ccc(O)cc1)NC(=O)[C@H](CO)NC(=O)[C@H](Cc1c[nH]c2ccccc12)NC(=O)[C@H](Cc1c[nH]cn1)NC(=O)[C@@H]1CCC(=O)N1 [leuprolide, 5-oxo-L-prolyl-L-histidyl-L-tryptophyl-L-seryl-L-tyrosyl-D-leucyl-L-leucyl-L-arginyl-N-ethyl-Lprolinamide acetate, reference compound] | Yes | Effect on tumor growth, drug alone (leuprolide alone): arrested tumor growth after 15 days of treatment but did not decrease tumor sizes; Tumor size reached, relative to initial size (leuprolide alone (Lupron depot, 0.187 mg/mouse i.m. once)): 180%
6 | C[C@]12C=CC(=O)N[C@@H]1CC[C@@H]1[C@@H]2CC[C@]2(C)[C@@H](C(=O)Nc3cc(C(F)(F)F)ccc3C(F)(F)F)CC[C@@H]12 [dutasteride, (5α,17β)-N-{2,5-bis(trifluoromethyl)phenyl}-3-oxo-4-azaandrost-1-ene-17-carboxamide, reference compound] | Yes | Tumor size relative to initial size (dutasteride alone): 120%
